Peptide text beside a SMILES is read from it.
Test system: male runners
Experiment: Dynavision D2 MODE B reaction test with cognitive load (hits and time per hit in 60 s)
Format: in vivo, human
Design: Mode B Avg Δ, Mean Difference: unit not given here
Details: for Mode B Avg Δ (time per hit), group mean / Mode B Hits Δ, group mean: Post-Pre
Experimental: The testing protocol is depicted in FIG. 1. Data collection occurred on four separate occasions. Each session required participants to perform a 60-min run at 75% of their previously measured VO2max. Following this run, all participants performed a run at 90% of their VO2max until volitional exhaustion. All participants performed their first trial (DHY) without any rehydration. During this session the total weight lost during the trial was determined. The fluid loss that occurred during this session was then used to determine the participant's swear rate (L·hr^−1). To continue in the study, participant's sweat rate was or exceeded 1.3 L·hr^−1. During the next three trails participants were provided 250 ml of fluid every 15 minutes in equal amounts. During one of the trials participants consumed only a flavored sports drink (ELECT only), while during the other trials participants consumed the alanine-glutamine supplement (Sustamine™) mixed in the same flavored sports drink at either a low (LD: 300 mg per 500 ml) or high (HD: 1 g per 500 ml) dose. Measurement of upper body reaction time was performed on the Dynavision D2 Visuomotor Training Device (D2; Dynavision International LLC, West Chester, Ohio). The D2 is a light training reaction device, developed to train sensory motor integration through the visual system. It consists of a board (4 foot×4 foot) that can be raised or lowered relative to the height of the operator. It contains 64 target buttons arranged into five concentric circles surrounding a center screen that can be illuminated to serve as a stimulus for the participant. Participants were required to assume a comfortable athletic stance and stand at a distance from the board where they could easily reach all of the lights. The board height was adjusted so the LCD screen was located just below eye level. A total of three different reaction tests were conducted. Participants were instructed to fixate their gaze on the LCD screen in the middle of the board and to keep their focus there for the entirety of the experiment. The third assessment (MODE B) was similar to the previous measure in that participants were required to react to a visual stimulus as it changed positions on the board. However, the difference between the two assessments was that the stimulus remained for 1 s before it changed to another random location, and each participant was required to verbally recite a five digit number that was presented on the center screen of the D2 during each assessment. The appearance of the digits placed an additional demand on the information processing resources of the participant. The participant was instructed to successfully identify and strike each stimulus before it changed position and score as many strikes as possible within 60 s. The number of successful hits was recorded for each participant. Additionally, to make inferences on true effects of the different trials on reaction performance, an analysis based on the magnitude of differences, calculated from 90% confidence intervals, as previously described by Batterham and Hopkins (2005), was used in this study. Differences in Post-Pre performance (Δresponse) between trials were analyzed via a published spreadsheet (Hopkins 2007), with the smallest non-trivial change set at 20% of the grand standard deviation (Batterham and Hopkins 2005). All data are expressed as a mean effect±SD, with percent chances of a beneficial, trivial or negative outcome. Qualitative inferences, based on quantitative chances were assessed as: <1% almost certainly not, 1-5% very unlikely, 5-25% unlikely, 25-75% possibly, 75-95% likely, 95-99% very likely and >99% almost certainly (Hopkins 2002).

With `C[C@H](N)C(=O)N[C@@H](CCC(N)=O)C(=O)O` [L-Alanyl-L-Glutamine] (H-Ala-Gln-OH) the “Mode B Avg Δ, Interpretation” value (Dehydration vs High Dose) was “likely negative”, the “Mode B Avg Δ, Mean Difference” value (Dehydration vs High Dose) was −0.023 and the “Mode B Avg Δ, Percent Negative” value (Dehydration vs High Dose) was 82.12%. For the same molecule, the “Mode B Avg Δ, Percent Positive” value (Dehydration vs High Dose) was 1.37%, the “Mode B Avg Δ, Percent Trivial” value (Dehydration vs High Dose) was 16.50% and the “Mode B Hits Δ, Interpretation” value (Dehydration vs High Dose) was “Unclear”. For the same molecule, the “Mode B Hits Δ, Mean Difference” value (Dehydration vs High Dose) was 0.67, the “Mode B Hits Δ, Percent Negative” value (Dehydration vs High Dose) was 20.22% and the “Mode B Hits Δ, Percent Positive” value (Dehydration vs High Dose) was 31.57%. For the same molecule, the “Mode B Hits Δ, Percent Trivial” value (Dehydration vs High Dose) was 48.20%, the “Mode B Avg Δ, Interpretation” value (Dehydration vs Low Dose) was “Unclear” and the “Mode B Avg Δ, Mean Difference” value (Dehydration vs Low Dose) was −0.0075. For the same molecule, the “Mode B Avg Δ, Percent Negative” value (Dehydration vs Low Dose) was 41.89%, the “Mode B Avg Δ, Percent Positive” value (Dehydration vs Low Dose) was 8.13% and the “Mode B Avg Δ, Percent Trivial” value (Dehydration vs Low Dose) was 49.99%. For the same molecule, the “Mode B Hits Δ, Interpretation” value (Dehydration vs Low Dose) was “Unclear”, the “Mode B Hits Δ, Mean Difference” value (Dehydration vs Low Dose) was −1.1 and the “Mode B Hits Δ, Percent Negative” value (Dehydration vs Low Dose) was 31.06%. The “Mode B Hits Δ, Percent Positive” value (Dehydration vs Low Dose) was 10.62%, the “Mode B Hits Δ, Percent Trivial” value (Dehydration vs Low Dose) was 58.32% and the “Mode B Avg Δ, Interpretation” value (Gatorade vs High Dose) was “No”. The “Mode B Hits Δ, Interpretation” value (Gatorade vs High Dose) was “Unclear”, the “Mode B Hits Δ, Mean Difference” value (Gatorade vs High Dose) was −0.5 and the “Mode B Hits Δ, Percent Negative” value (Gatorade vs High Dose) was 33.43%. The “Mode B Hits Δ, Percent Positive” value (Gatorade vs High Dose) was 25.96%, the “Mode B Hits Δ, Percent Trivial” value (Gatorade vs High Dose) was 40.61% and the “Mode B Avg Δ (time per hit), group mean” value (High Dose (1 g per 500 ml)) was 0. For the same molecule, the “Mode B Hits Δ, group mean” value (High Dose (1 g per 500 ml)) was 2.75, the “Mode B Avg Δ (time per hit), group mean” value (Low Dose (300 mg per 500 ml)) was −0.0158 and the “Mode B Hits Δ, group mean” value (Low Dose (300 mg per 500 ml)) was 4.5. For the same molecule, the “Mode B Avg Δ, Interpretation” value (Low Dose vs Gatorade) was “possibly negative”, the “Mode B Avg Δ, Mean Difference” value (Low Dose vs Gatorade) was −0.016 and the “Mode B Avg Δ, Percent Negative” value (Low Dose vs Gatorade) was 70.44%. The “Mode B Avg Δ, Percent Positive” value (Low Dose vs Gatorade) was 1.16%, the “Mode B Avg Δ, Percent Trivial” value (Low Dose vs Gatorade) was 28.39% and the “Mode B Hits Δ, Interpretation” value (Low Dose vs Gatorade) was “Unclear”. For the same molecule, the “Mode B Hits Δ, Mean Difference” value (Low Dose vs Gatorade) was 2.3, the “Mode B Hits Δ, Percent Negative” value (Low Dose vs Gatorade) was 25.04% and the “Mode B Hits Δ, Percent Positive” value (Low Dose vs Gatorade) was 48.77%. The “Mode B Hits Δ, Percent Trivial” value (Low Dose vs Gatorade) was 26.19%, the “Mode B Avg Δ, Interpretation” value (Low Dose vs High Dose) was “Unclear” and the “Mode B Avg Δ, Mean Difference” value (Low Dose vs High Dose) was −0.016. For the same molecule, the “Mode B Avg Δ, Percent Negative” value (Low Dose vs High Dose) was 64.75%, the “Mode B Avg Δ, Percent Positive” value (Low Dose vs High Dose) was 5.03% and the “Mode B Avg Δ, Percent Trivial” value (Low Dose vs High Dose) was 30.22%. The “Mode B Hits Δ, Interpretation” value (Low Dose vs High Dose) was “Unclear”, the “Mode B Hits Δ, Mean Difference” value (Low Dose vs High Dose) was 1.8 and the “Mode B Hits Δ, Percent Negative” value (Low Dose vs High Dose) was 7.59%. For the same molecule, the “Mode B Hits Δ, Percent Positive” value (Low Dose vs High Dose) was 40.19%, the “Mode B Hits Δ, Percent Trivial” value (Low Dose vs High Dose) was 52.22% and the “successful hits in MODE B and time per successful hits” value (between trials) was “No differences were noted between trials”.
